This is an account of results in PMC11461180, “Interaction with IP6K1 supports pyrophosphorylation of substrate proteins by the inositol pyrophosphate 5-InsP7” (Bioscience Reports, 2024).

The target in one assay is T1, AP3B1 (myc-tagged) (Homo sapiens, UniProt O00203).
T1 construct: full-length, N-terminal myc tag, expressed in HEK293T cells, immunoprecipitated on protein G-sepharose beads
T1 sequence (O00203 1-1094): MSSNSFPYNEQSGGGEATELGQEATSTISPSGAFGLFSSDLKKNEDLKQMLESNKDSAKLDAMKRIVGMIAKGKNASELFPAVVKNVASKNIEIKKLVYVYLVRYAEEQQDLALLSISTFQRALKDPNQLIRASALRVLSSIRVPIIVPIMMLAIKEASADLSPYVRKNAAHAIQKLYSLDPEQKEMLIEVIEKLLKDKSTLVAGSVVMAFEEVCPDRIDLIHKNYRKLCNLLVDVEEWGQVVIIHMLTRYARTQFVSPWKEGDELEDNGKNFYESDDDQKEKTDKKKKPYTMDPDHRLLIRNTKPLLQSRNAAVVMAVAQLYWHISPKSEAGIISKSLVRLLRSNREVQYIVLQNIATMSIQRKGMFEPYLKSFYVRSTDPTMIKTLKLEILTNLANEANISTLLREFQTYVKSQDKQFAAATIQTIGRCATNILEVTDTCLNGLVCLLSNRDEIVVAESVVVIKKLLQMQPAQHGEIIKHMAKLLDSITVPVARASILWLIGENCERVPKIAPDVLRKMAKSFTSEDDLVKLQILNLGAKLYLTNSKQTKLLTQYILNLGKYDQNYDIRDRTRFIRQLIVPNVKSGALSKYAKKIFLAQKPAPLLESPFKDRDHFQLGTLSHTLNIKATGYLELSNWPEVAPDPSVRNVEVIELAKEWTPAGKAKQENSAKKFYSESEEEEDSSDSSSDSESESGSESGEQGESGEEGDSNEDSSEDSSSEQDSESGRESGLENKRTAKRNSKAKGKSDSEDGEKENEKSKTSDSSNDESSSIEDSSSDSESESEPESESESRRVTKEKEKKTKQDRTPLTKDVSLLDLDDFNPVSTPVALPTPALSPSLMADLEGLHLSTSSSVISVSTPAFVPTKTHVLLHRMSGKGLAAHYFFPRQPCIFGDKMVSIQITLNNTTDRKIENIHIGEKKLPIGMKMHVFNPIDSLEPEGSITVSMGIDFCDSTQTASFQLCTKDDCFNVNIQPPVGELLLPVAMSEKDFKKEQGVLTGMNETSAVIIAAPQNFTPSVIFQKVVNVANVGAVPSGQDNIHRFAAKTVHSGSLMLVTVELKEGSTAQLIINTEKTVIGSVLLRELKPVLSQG
The experiment in a line: pyrophosphorylation of immunoprecipitated protein, phosphorimager. The format is biochemical. Conditions: labelled compound; β-phosphate donor, covalent transfer to pSer of the protein, enzyme-independent; 6 mM MgCl2, pH 7.4, 37 °C, 15 min.

For assay [1], the target named is T2, Casein Kinase II (CK2 holoenzyme) (Homo sapiens, UniProt P68400).
T2 construct: gene CSNK2A1; commercial recombinant holoenzyme, heterotetramer; with Casein kinase II subunit beta
T2 sequence (P68400 whole entry): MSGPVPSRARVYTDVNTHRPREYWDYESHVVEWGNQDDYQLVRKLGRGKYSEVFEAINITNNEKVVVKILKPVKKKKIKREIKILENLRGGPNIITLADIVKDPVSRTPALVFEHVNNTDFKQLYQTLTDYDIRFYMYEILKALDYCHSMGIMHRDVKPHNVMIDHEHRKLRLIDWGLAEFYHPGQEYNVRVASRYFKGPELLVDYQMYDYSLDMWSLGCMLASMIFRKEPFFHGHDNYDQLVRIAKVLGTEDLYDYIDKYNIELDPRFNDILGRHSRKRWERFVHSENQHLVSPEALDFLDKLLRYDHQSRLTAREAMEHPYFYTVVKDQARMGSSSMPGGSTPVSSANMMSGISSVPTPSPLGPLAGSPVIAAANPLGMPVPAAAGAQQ
T2 sequence (P67870 2-215 partner): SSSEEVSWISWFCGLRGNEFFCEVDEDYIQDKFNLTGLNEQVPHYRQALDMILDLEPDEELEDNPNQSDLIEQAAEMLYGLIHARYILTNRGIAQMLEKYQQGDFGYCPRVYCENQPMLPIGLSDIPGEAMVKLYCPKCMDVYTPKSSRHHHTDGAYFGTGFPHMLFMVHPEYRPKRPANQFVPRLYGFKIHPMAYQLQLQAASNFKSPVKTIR
Briefly: [γ-32P]ATP phosphorylation of immunoprecipitated myc-AP3B1, autoradiography. It is filed as biochemical. Conditions: 15 µM TBCA preincubated 30 min on ice; 500 µM Mg-ATP; enzyme form (holoenzyme or GST-CK2α) not told for the TBCA lanes.

SMILES strings stand for the structures.

Take `O=P(O)(O)O[C@H]1[C@@H](OP(=O)(O)O)[C@H](OP(=O)(O)O)[C@@H](OP(=O)(O)OP(=O)(O)O)[C@H](OP(=O)(O)O)[C@H]1OP(=O)(O)O` [5-InsP7]: the “pyrophosphorylation of immunoprecipitated protein, phosphorimager” value on AP3B1 (myc-tagged) is “AP3B1 over-expressed under these two conditions was immunoprecipitated and incubated with radiolabeled 5-InsP7”.
As for `O=C(O)/C=C/c1cc(Br)c(Br)c(Br)c1Br` [TBCA], the “phosphorylation lowered at 15 μM” value in assay [1] is on record as “which was lowered when the CK2 inhibitor TBCA was added to the reaction”.
